Test results from patent US7939542B2, “Cinnamaldehyde derivatives having improved solubility in water, a method for preparing the same and a pharmaceutical composition comprising the same” (Korea Research Institute of Bioscience and Biotechnology, priority 2008, dated 2011).

Key:
[1] = Solubility (physicochemical properties); conditions: for Solubility: Insoluble: solvents in which the compound is insoluble; for Solubility: Soluble: solvents in which the compound is soluble
[2] = test system: human colon carcinoma SW620 cells; experiment: Cell cycle analysis by flow cytometry (PI staining); format: cell-based; conditions: 48 hours
Method: In practice, when human colon carcinoma SW620 cells are dosed with 10 to 20 μM of the compound of Chemical Formula 1, the compound induces a cell cycle arrest in the G2/M phase, leading to cell growth inhibition. The inhibition of the growth of cancer cells may be tested as follows. In brief, human colon carcinoma SW620 cells were dosed with the compound dissolved in DMSO. After 48 hrs, nuclear DNA was stained with propidium iodide. The stained cells were analyzed to determine the cell cycle using a FACSCalibur cytometer (Becton-Dickinson, San Jose, Calif., USA). The proportions of cells in G1, S and G2/M phases were determined using a Becton-Dickinson Modifit cell-cycle analysis program and expressed as percentages.
For flow cytometric analysis, human colon carcinoma SW620 cells were plated in T25 flasks (containing 7.5 ml of culture medium) and cultured in RPMI 1640 and DMEM media, each of which was supplemented with 10% FBS, in an incubator at 37° C. for 12 hrs. Then, as a control, DMSO was added to the culture medium at a final concentration of 0.1% (7.5 μl). As compound treatment groups, 7.5 μl of each of compounds dissolved in DMSO at various concentrations was added to the culture medium. After 48 hours, control (DMSO) and compound-treated cells were harvested and subjected to flow cytometric analysis.
After the culture media were removed from flasks, cells were trypsinized and centrifuged at 300 g for 5 min. The collected cells were washed with phosphate buffer twice to remove culture media. The cells were then fixed in 3 ml of 70% ethanol at −20° C. for 12 hrs. The fixed cells were centrifuged at 300 g for 5 min and washed with cold PBS twice to remove remaining ethanol. The washed cells were resuspended in 500 μl of PBS, and treated with 50 μl of 100 μg/ml RNase A at 37° C. for 30 min. Then, cells were incubated in 10 μl of 1 mg/ml propidium iodide (PI) in PBS for DNA staining. The cell cycles of 20,000 stained cells were analyzed using a FACSCalibur cytometer (Becton-Dickinson, San Jose, Calif., USA). Cell cycle fractions were quantified using a Becton-Dickinson Modifit cell-cycle analysis program, and the distribution of cells in G1, S and G2/M phases was expressed as percentages.

[3] = test system: human colon carcinoma HT-29 cells; experiment: Anticancer activity upon oral administration to tumor-xenografted nude mice; format: in vivo; conditions: HT-29 xenograft, 10 mg/kg orally once every day, Day 18, p<0.001
Method: Tumor diameter was measured in three planes with a vernier caliper. Tumor volume (V) was calculated using the following Equation 1. Tumor volume=(Length×Width×Height)/2 [Equation 1]
On Day 18 of tumor transplantation, animals were sacrificed, and tumors were excised and weighed.

[4] = Body weight change in tumor-xenografted nude mice; conditions: positive control 2 mg/kg, 18 days, p<0.001
Method: Nude mice were divided into three groups: a compound administration group, a vehicle control group and a positive control group. A 0.3-ml aliquot of human colon carcinoma HT-29 cells (3×10^7 cells/ml) was injected subcutaneously into the right axilla between the scapular region and the chest wall of mice. From the day (Day 1) after tumor transplantation to the day before sacrifice, the compound of Chemical Formula 6 was administered orally at a dose of 10 mg/kg once every day.
In order to investigate the clinical signs of drug toxicity, animals were monitored for change in body weight about three times a week during the test period.

| SMILES | Solubility: Insoluble [1] | Solubility: Soluble [1] | Cell distribution (%) G0-G1 ([2]; SW620, 30 μM) | Cell distribution (%) G2-M ([2]; SW620, 30 μM) | Cell distribution (%) S ([2]; SW620, 30 μM) | Water solubility [1] | Cell distribution (%) G0-G1 ([2]; SW620, 20 μM) | Cell distribution (%) G2-M ([2]; SW620, 20 μM) | Cell distribution (%) S ([2]; SW620, 20 μM) | Cell distribution (%) G0-G1 ([2]; SW620, 40 μM) | Cell distribution (%) G2-M ([2]; SW620, 40 μM) | Cell distribution (%) S ([2]; SW620, 40 μM) | tumor growth inhibitory effect [3] | weight loss [4] |
| --- | --- | --- | --- | --- | --- | --- | --- | --- | --- | --- | --- | --- | --- | --- |
| CN1CCN(C(=O)Oc2ccccc2/C=C/C=O)CC1.Cl [Compound of Formula 7] | Hexane, acetone | Alcohol, H2O | 35.11% | 47.83% | 17.06% | – | – | – | – | – | – | – | – | – |
| COCC(=O)Oc1ccccc1/C=C/C=O [Compound of Formula 2] | Hexane | Alcohol, DMSO | – | – | – | 320 µM | 33.00% | 49.94% | 17.06% | – | – | – | – | – |
| O=C/C=C/c1ccccc1OS(=O)(=O)c1ccccc1 [Compound of Formula 5] | Hexane | Alcohol, DMSO | – | – | – | 600 µM | 36.01% | 45.94% | 18.05% | – | – | – | – | – |
| O=C/C=C/c1ccccc1OCc1ccncc1 [Compound of Formula 3] | Hexane, H2O | Alcohol, DMSO | – | – | – | – | 39.80% | 33.63% | 26.57% | – | – | – | – | – |
| Cl.O=C/C=C/c1ccccc1OCc1ccncc1 [Compound of Formula 6] | Hexane, acetone | Alcohol, H2O | – | – | – | – | 39.80% | 33.63% | 26.57% | 43.85% | 41.31% | 14.84% | 30.7% | – |
| COc1cccc2c1C(=O)c1c(O)c3c(c(O)c1C2=O)C[C@@](O)(C(=O)CO)C[C@@H]3O[C@H]1C[C@H](N)[C@H](O)[C@H](C)O1 [adriamycin] | – | – | – | – | – | – | – | – | – | – | – | – | – | 10.3% |
| CN1CCN(C(=O)Oc2ccccc2/C=C/C=O)CC1 [Compound of Formula 4] | Hexane, H2O | Alcohol, DMSO | 37.50% | 45.49% | 17.01% | – | – | – | – | – | – | – | – | – |
